The assay deals with Gag-Pol polyprotein (Human immunodeficiency virus type 1 group M subtype B (isolate NY5), UniProt P12497). The assay can be described thus: HIV-1 RT Inhibition Assay. To be noted: 37 °C. Here is the method: A reverse transcriptase (RT) assay kit produced by Roche was selected for the RT inhibition assay. All the reagents for performing the RT reaction came with the kit, and the ELISA procedures for RT inhibition assay were carried out following the description in the kit protocol. Briefly, the reaction mixture containing template/primer complex, viral nucleotides (dNTPs), and RT in the incubation buffer with or without inhibitors was incubated for 1 h at 37 °C. After that, the reaction mixture was transferred to a streptavidincoated microtiter plate and incubated for another 1 h at 37 °C to make sure that retranscriptional cDNA chain consisted of biotin-labeled dNTPs bound to streptavidin. Then, unbound dNTPs were removed using washing buffer and anti-DIG-POD working solution was added. After incubation for 1 h at 37 °C, the DIG-labeled dNTPs incorporated into cDNA were bound to the anti-DIG-POD antibody. The unbound anti-DIG-PODs were removed.

Broadly, the IC50 is the concentration needed to halve the response being measured. Read a low IC50 as greater potency. `NS(=O)(=O)c1ccc(NC(=O)CSc2nc3ncccc3n2-c2ccc(C3CC3)c3ccccc23)c(Br)c1` [N-(2-Bromo-4-sulfonamido-phenyl)-2-(1-(4-cyclopropylnaphthalen-1-yl)-1H-imidazo[4,5-b]pyridin-2-ylthio)acetamide (12)] returned an IC50 of 1500 nM.

In the case of `Cc1ccnc2c1NC(=O)c1cccnc1N2C1CC1` [BI-RG-587], half-maximal inhibition (IC50) was put at 690 nM. To `Cc1cc(C#N)cc(C)c1Oc1nc(Nc2ccc(C#N)cc2)nc(N)c1Br` belongs 370 nM.

Source of the values: BindingDB's records for doi:10.1111/cbdd.12751 (Shandong University, 2016).
